Results taken from patent US9315519B2, “Guanidine substituted tetrahydroisoquinoline compounds as factor XIa inhibitors” (BRISTOL-MYERS SQUIBB COMPANY, priority 2012, dated 2016).
Where a name gives a salt, the structure may show the parent alone.

Molecular target: purified human Factor XIa (Homo sapiens (Human), UniProt P03951)
Experiment: Factor XIa enzyme inhibition assay (chromogenic substrate S-2366)
Format: biochemical
Settings: substrate S-2366, pH 7.4
Description: The effectiveness of compounds of the present invention as inhibitors of the coagulation factors XIa, VIIa, IXa, Xa, XIIa, plasma kallikrein or thrombin, can be determined using a relevant purified serine protease, respectively, and an appropriate synthetic substrate. The rate of hydrolysis of the chromogenic or fluorogenic substrate by the relevant serine protease was measured both in the absence and presence of compounds of the present invention. […] A decrease in the rate of absorbance or fluorescence change in the presence of inhibitor is indicative of enzyme inhibition. Such methods are known to one skilled in the art. The results of this assay are expressed as the inhibitory constant, Ki.
Factor XIa determinations were made in 50 mM HEPES buffer at pH 7.4 containing 145 mM NaCl, 5 mM KCl, and 0.1% PEG 8000 (polyethylene glycol; JT Baker or Fisher Scientific). Determinations were made using purified human Factor XIa at a final concentration of 75-200 pM (Haematologic Technologies) and the synthetic substrate S-2366 (pyroGlu-Pro-Arg-pNA; CHROMOGENIX® or AnaSpec) at a concentration of 0.0002-0.001 M.
The Michaelis constant, Km, for substrate hydrolysis by each protease, was determined at 25° C. using the method of Lineweaver and Burk. Values of Ki were determined by allowing the protease to react with the substrate in the presence of the inhibitor. Reactions were allowed to go for periods of 20-180 minutes (depending on the protease) and the velocities (rate of absorbance or fluorescence change versus time) were measured. The following relationships were used to calculate Ki values: (vo−vs)/vs=I/(Ki(1+S/Km)) for a competitive inhibitor with one binding site; or vs/vo=A+((B−A)/1+((IC50/(I)n))); and Ki=IC50/(1+S/Km) for a competitive inhibitor where: […]

Chain of purified human Factor XIa (P03951 388-625): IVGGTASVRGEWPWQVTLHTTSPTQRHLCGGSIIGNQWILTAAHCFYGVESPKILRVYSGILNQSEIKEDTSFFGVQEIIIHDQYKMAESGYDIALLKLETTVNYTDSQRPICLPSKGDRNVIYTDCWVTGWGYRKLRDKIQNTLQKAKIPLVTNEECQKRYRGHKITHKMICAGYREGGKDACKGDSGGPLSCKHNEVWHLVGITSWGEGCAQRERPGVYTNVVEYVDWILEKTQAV
Chain of purified human Factor XIa (P03951 19-387 partner): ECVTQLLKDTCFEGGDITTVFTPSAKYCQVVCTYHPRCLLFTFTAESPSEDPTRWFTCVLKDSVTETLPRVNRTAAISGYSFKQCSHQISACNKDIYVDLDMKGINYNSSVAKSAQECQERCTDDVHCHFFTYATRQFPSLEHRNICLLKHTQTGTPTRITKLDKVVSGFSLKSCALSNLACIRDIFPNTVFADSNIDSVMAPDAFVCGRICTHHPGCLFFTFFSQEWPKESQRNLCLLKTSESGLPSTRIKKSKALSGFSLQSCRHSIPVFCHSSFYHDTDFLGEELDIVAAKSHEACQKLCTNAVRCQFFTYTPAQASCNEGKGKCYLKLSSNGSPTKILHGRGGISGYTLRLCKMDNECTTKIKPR

## N=C(N)N1CCc2nc(C(=O)N3CCc4c(Br)cccc4C3C(=O)Nc3ccc(C(=O)O)cc3)sc2C1 (stereo not drawn) [Example 1, 4-(5-bromo-2-(5-carbamimidoyl-4,5,6,7-tetrahydrothiazolo[5,4-c]pyridine-2-carbonyl)-1,2,3,4-tetrahydroisoquinoline-1-carboxamido)benzoic acid, TFA Salt]
  Ki: 90.6 nM

## COC1CCN(c2cccc3c2CCN(C(=O)c2nc4c(s2)CN(C(=N)N)CC4)C3C(=O)Nc2ccc(C(=O)O)cc2)CC1 (stereo not drawn) [Example 5, 4-(2-(5-carbamimidoyl-4,5,6,7-tetrahydrothiazolo[5,4-c]pyridine-2-carbonyl)-5-(4-methoxypiperidin-1-yl)-1,2,3,4-tetrahydroisoquinoline-1-carboxamido)benzoic acid, TFA salt]
  Ki: < 5 nM

## COC1CCN(c2cccc3c2CCN(C(=O)C2CC4(CCNCC4)C2)C3C(=O)Nc2ccc(C(=O)O)cc2)CC1 (stereo not drawn) [Example 12, 4-(5-(4-methoxypiperidin-1-yl)-2-(7-azaspiro[3.5]nonane-2-carbonyl)-1,2,3,4-tetrahydroisoquinoline-1-carboxamido)benzoic acid, bis TFA Salt]
  Ki: 190 nM

## CN1CCN(c2cccc3c2CCN(C(=O)C2CC4(CCN(C(=N)N)CC4)C2)[C@@H]3C(=O)Nc2ccc(C(=O)O)cc2)C(=O)C1 [Example 18, (S)-4-(2-(7-carbamimidoyl-7-azaspiro[3.5]nonane-2-carbonyl)-5-(4-methyl-2-oxopiperazin-1-yl)-1,2,3,4-tetrahydroisoquinoline-1-carboxamido)benzoic acid, bis HCl Salt]
  Ki: < 5 nM

## CN1CCN(c2cccc3c2CCN(C(=O)CC2CCN(C(=N)N)CC2)[C@H]3C(=O)Nc2ccc(C(=O)O)cc2)C(=O)C1 [Example 19, (R)-4-(2-(2-(1-carbamimidoylpiperidin-4-yl)acetyl)-5-(4-methyl-2-oxopiperazin-1-yl)-1,2,3,4-tetrahydroisoquinoline-1-carboxamido)benzoic acid, bis-HCl Salt]
  Ki: 382 nM

## COC1CCN(c2cccc3c2CCN(C(=O)C2CCN(C(=N)N)CC2)C3C(=O)Nc2ccc(C(=O)O)cc2)CC1 (stereo not drawn) [Example 24, 4-(2-(1-carbamimidoylpiperidine-4-carbonyl)-5-(4-methoxypiperidin-1-yl)-1,2,3,4-tetrahydroisoquinoline-1-carboxamido)benzoic acid, bis-TFA salt]
  Ki: 5.68 nM
